Data as given in ChEMBL document CHEMBL3627656 (Bioorg Med Chem, 2015).

Assays:
[1] = Lipophilicity, LogP of the compound at pH 7.4 by reverse-phase HPLC; type: physicochemical; conditions: buffer
[2] = biological target: T1, Prostaglandin G/H synthase 1 (Ovis aries, UniProt P05979); experiment: Inhibition of ovine COX-1 using arachidonic acid after 5 mins by colorimetric method
T1 sequence (P05979 whole entry): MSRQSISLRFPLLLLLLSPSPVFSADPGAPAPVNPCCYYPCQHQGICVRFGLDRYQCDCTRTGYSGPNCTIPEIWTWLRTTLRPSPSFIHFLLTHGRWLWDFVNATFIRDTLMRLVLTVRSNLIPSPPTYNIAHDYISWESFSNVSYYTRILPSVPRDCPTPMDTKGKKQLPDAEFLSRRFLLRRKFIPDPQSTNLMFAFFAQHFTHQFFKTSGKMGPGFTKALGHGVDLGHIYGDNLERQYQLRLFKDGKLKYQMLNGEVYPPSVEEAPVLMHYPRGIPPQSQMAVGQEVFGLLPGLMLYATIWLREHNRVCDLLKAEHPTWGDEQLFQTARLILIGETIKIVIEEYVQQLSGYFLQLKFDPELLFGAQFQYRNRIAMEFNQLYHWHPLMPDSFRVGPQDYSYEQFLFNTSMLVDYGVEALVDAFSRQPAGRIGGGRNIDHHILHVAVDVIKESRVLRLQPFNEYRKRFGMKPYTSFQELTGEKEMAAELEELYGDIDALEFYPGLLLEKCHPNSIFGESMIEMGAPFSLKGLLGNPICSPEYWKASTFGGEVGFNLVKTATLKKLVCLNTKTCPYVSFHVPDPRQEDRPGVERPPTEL

[3] = Apparent permeability across apical to basolateral side in human Caco2 cells at 1 uM after 1 hr by LC-MS method; type: ADME, cell-based; conditions: Caco-2
[4] = Apparent permeability across basolateral to apical side in human Caco2 cells at 1 uM after 2 hrs by LC-MS method; type: ADME, cell-based; conditions: Caco-2
[5] = Apparent permeability across apical to basolateral side in human Caco2 cells at 10 uM after 1 hr by LC-MS method; type: ADME, cell-based; conditions: Caco-2
[6] = Apparent permeability across basolateral to apical side in human Caco2 cells at 10 uM after 2 hrs […] by LC-MS method; type: ADME, cell-based; conditions: Caco-2

## COc1ccccc1Oc1cc([N+](=O)[O-])ccc1NS(C)(=O)=O
[1]
  logP: 1.26
[2]
  IC50: > 100 µM
[3]
  Papp A→B at 1 h, 1 µM: 11.2 ×10⁻⁶ cm/s
[4]
  Papp B→A at 2 h, 1 µM: 8.5 ×10⁻⁶ cm/s
[5]
  Papp A→B at 1 h, 10 µM: 38.1 ×10⁻⁶ cm/s
[6]
  Papp B→A at 2 h, 10 µM: 25.4 ×10⁻⁶ cm/s

## COc1cccc(Oc2cc([N+](=O)[O-])ccc2NS(C)(=O)=O)c1
[1]
  logP: 1.65
[2]
  IC50: > 100 µM
[3]
  Papp A→B at 1 h, 1 µM: 42.7 ×10⁻⁶ cm/s
[4]
  Papp B→A at 2 h, 1 µM: 40.4 ×10⁻⁶ cm/s
[5]
  Papp A→B at 1 h, 10 µM: 52.3 ×10⁻⁶ cm/s
[6]
  Papp B→A at 2 h, 10 µM: 51.9 ×10⁻⁶ cm/s

## COc1ccc(Oc2cc([N+](=O)[O-])ccc2NS(C)(=O)=O)cc1
[1]
  logP: 1.41
[2]
  IC50: > 100 µM
[3]
  Papp A→B at 1 h, 1 µM: 8.3 ×10⁻⁶ cm/s
[4]
  Papp B→A at 2 h, 1 µM: 6.8 ×10⁻⁶ cm/s
[5]
  Papp A→B at 1 h, 10 µM: 18.2 ×10⁻⁶ cm/s
[6]
  Papp B→A at 2 h, 10 µM: 3.1 ×10⁻⁶ cm/s

## CS(=O)(=O)Nc1ccc([N+](=O)[O-])cc1Oc1ccccc1 [NIMESULIDE]
[2]
  IC50: > 100 µM
